Test [1] concerns PC-12. Nature of the test: Neuroprotective activity against CoCl2-induced neuronal injury in rat PC-12 cells assessed as cell viability at 30 uM relative to control. It is filed as functional. The settings on record: read-out: Activity.
The subject of test [2] is PC-12. In words: Neuroprotective activity against CoCl2-induced neuronal injury in rat PC-12 cells assessed as increase in cell viability. It is filed as functional, cell-based.
[3] abbreviates: Rattus norvegicus, PC-12, read-out: EC50.

With `CC(=O)[C@@H]1CC[C@]2(C(=O)O)C[C@H](O)[C@]3(C)[C@H](CC[C@@H]4[C@@]5(C)CC[C@H](O)C(C)(C)[C@@H]5C[C@H](O)[C@]43C)[C@@H]12`, in test [1], the viability at 30 µM was found to be 99.4%. Also, the EC50 (as a rule, the concentration at which the effect is half-maximal) in test [2] (pc-12) is “Not Active”. Turning to `CC(=O)[C@@H]1CC[C@]2(C(=O)O)CC[C@]3(C)[C@H](CC[C@@H]4[C@@]5(C)CC[C@H](O)C(C)(C)[C@@H]5C[C@H](O)[C@]43C)[C@@H]12`, the viability at 30 µM in test [1] amounted to 105%. Further, in test [2] (pc-12), the EC50 entry is listed as “Not Active”. As to `CC(=O)[C@@H]1CC[C@]2(C(=O)O)CC[C@]3(C)[C@H](CC[C@@H]4[C@@]5(C)CC[C@H](O)C(C)(C)[C@@H]5CC[C@]43C)[C@@H]12` [PLATANIC ACID], the viability at 30 µM in test [1] was found to be 96.8%. Moreover, the concentration giving a half-maximal response (EC50) in test [2] (setting [3]) came to 170 nM. In the case of `CC(=O)[C@@H]1CC[C@]2(C(=O)O)CC[C@]3(C)[C@H](C[C@@H](O)[C@@H]4[C@@]5(C)CCC(=O)C(C)(C)[C@@H]5C[C@H](O)[C@]43C)[C@@H]12`, the viability at 30 µM in test [1] was determined as 105%. The concentration giving a half-maximal response (EC50) result in test [2] (pc-12) is “Not Active”. Turning to `CC(=O)[C@@H]1CC[C@]2(C(=O)O)C[C@H](O)[C@]3(C)[C@H](CC[C@@H]4[C@@]5(C)CCC(=O)C(C)(C)[C@@H]5C[C@H](O)[C@]43C)[C@@H]12`, in test [1], the viability at 30 µM was 104%. In addition, the concentration giving a half-maximal response (EC50) entry in test [2] (pc-12) is “Not Active”. On to `CC(=O)[C@@H]1CC[C@]2(C(=O)O)CC[C@]3(C)[C@H](CC[C@@H]4[C@@]5(C)CC[C@H](O)[C@@](C)(CO)[C@@H]5C[C@H](O)[C@]43C)[C@@H]12`, for which the viability at 30 µM in test [1] stood at 110%. For the same molecule, in test [2] (pc-12), the EC50 entry is reported as “Not Active”.

In the case of `CC(=O)[C@@H]1CC[C@]2(C(=O)O)CC[C@]3(C)[C@H](C[C@@H](O)[C@@H]4[C@@]5(C)CCC(=O)C(C)(C)[C@@H]5CC[C@]43C)[C@@H]12`, the viability at 30 µM in test [1] came out at 102%. Further, the half-maximal effective concentration (EC50) in test [2] (setting [3]) was found to be 10 nM.

`OC[C@H]1O[C@@H](OCCc2ccc(O)cc2)[C@H](O)[C@@H](O)[C@@H]1O` [SALIDROSIDE]: the viability at 30 µM in test [1] is 99.2%. As to `CC(=O)[C@@H]1CC[C@]2(C(=O)O)CC[C@]3(C)[C@H](CC[C@@H]4[C@@]5(C)CCC(=O)C(C)(C)[C@@H]5C[C@H](O)[C@]43C)[C@@H]12`, in test [1], the viability at 30 µM turned out to be 96%. In test [2] (pc-12), the half-maximal effective concentration (EC50) entry is given as “Not Active”.

The record behind these values is ChEMBL document CHEMBL4725322, “New 30-norlupane derivatives through chemical-microbial semi-synthesis of betulinic acid and their neuroprotective effect” (Bioorg Med Chem Lett, 2020).
